In this test the test system is 991263-137-R1-J2-PDC complex spheroid viability. In words: Anticancer human tumor 991263-137-R1-J2-PDC patient-derived colon adenocarcinoma cell line growth inhibition [POLQ]. The conditions noted are these: for viability, T/C: stronger effect = lower value. As to the method: Multicellular complex tumor spheroid response to Polymerase (POL) inhibitors (novobiocin, ART-558, RP6685) in combination with a variety of drugs and investigational agents in selected tumor cell lines
The POL inhibitors (novobiocin, ART-558, and RP6685) were evaluated both individually and in combination with standard of care and investigational anticancer small molecules within a complex spheroid model of solid tumors. . Complex spheroids include a stromal component modeled by human endothelial cells (HUVEC) and fibroblasts modeled by human mesenchymal stem cells (MSCs). The concentration ranges selected for each drug and investigational agent were based upon clinically achievable concentrations if the clinical Cmax of the agent was known.
Compounds. The drugs and investigational agents: novobiocin (NSC847541), ART-558 (NSC835418), RP-6685 (NSC848927), peposertib (NSC802822), ceralasertib (NSC780249), elimusertib (NSC800525), camonsertib (NSC841442), AZD-1390 (NSC803789), olaparib (NSC753686), talazoparib (NSC767125), rucaparib (NSC756644), sotorasib (NSC818433), MRTX-1133 (NSC836407), SN-38 (NSC673596), topotecan (NSC609699), epotoside (NSC141540), doxorubicin (NSC123127), gemcitabine (NSC613327), 5-fluorouracil (NSC19893), paclitaxel (NSC125973), vemurafenib (NSC761431), MSA-2 (NSC828583), SN-011 (NSC837082), adavosertib (NSC754352), prexasertib (NSC758257), carboplatin (NSC241240) and oxaliplatin (NSC266046), were obtained from the National Cancer Institute (NCI) Developmental Therapeutics Program Chemical Repository (21). The FDA-approved anticancer drug set is available from the Developmental Therapeutics Program at https://dtp.cancer.gov/organization/dscb/obtaining/. […] The stock solutions were prepared in dimethyl sulfoxide (DMSO, Sigma-Aldrich, St. Louis, MO, cat. D2650), except for the platinum compounds which were prepared in saline (Quality Biological, Gaithersburg, MD, cat. 114-055-101), at 800-fold the tested concentration and stored at -70 degrees C prior to their use. All drugs and investigational agents were tested over a range starting from a high concentration at or near the clinical Cmax and decreasing in half-log increments. If the clinical Cmax for an agent had not been determined, the highest concentration tested was 10 microM, except for SN-38, which was tested at a high concentration of 1 microM.
Cell Culture. All cells were maintained in an incubator at 37 degrees C and 5% CO2 with 95% humidity. The PDC lines were cultured according to standard operating procedures established by the NCI PDMR (https://pdmr.cancer.gov). Table 3 of the manuscript, lists the cell lines along with the number of the three cell types plated to form the mct-spheroids and media for tumor cell growth. After thawing, all PDC lines, except 997537-175-T-J1-PDC and 415267-285-R-J2-PDC, were cultured in Matrigel-coated flasks prepared with a working solution of 1X Ham's F-12 nutrient mix, without supplementation (Thermo Fisher Scientific, cat. 11765054), 100 U/mL penicillin-streptomycin (Thermo Fisher Scientific, cat. 15140122), and 2.5% Matrigel (Corning Inc., Corning, NY, cat. 354248) for the first three passages. The two PDC lines 997537-175-T-J1-PDC and 415267-285-R-J2-PDC were cultured on uncoated flasks. The 857933-349-R-J2-PDC line was cultured in 6C/Colon 1B media containing advanced DMEM/F-12 (Thermo Fisher Scientific, cat. 12634028), 10 mM HEPES (Thermo Fisher Scientific, cat. 15630080), 1X GlutaMAX supplement (Thermo Fisher Scientific, cat. 35050061), 0.1 mg/mL primocin (InvivoGen, San Diego, CA, cat. ant-pm-2), 10% defined fetal bovine serum, heat inactivated (HyClone Laboratories Inc., Logan, UT, cat. SH30070.03HI), 50% L-WRN conditioned media (ATCC, cat. CRL-3276), 1.25 mM N-Acetyl-L-cysteine (Sigma-Aldrich, cat. A9165), 10 mM nicotinamide (Sigma-Aldrich, cat. N0636), 1X B-27 supplement (Thermo Fisher Scientific, cat. 17504044), 1X N-2 supplement (Thermo Fisher Scientific, cat. […]

Where [1] appears, read: curve of first compound, second compound 0.0316 µM.
The mark [2] stands for this setting: curve of first compound, second compound 0.1 µM.
The mark [3] stands for this setting: curve of first compound, second compound 0.316 µM.
[4] abbreviates: curve of first compound, second compound 1 µM.
[5] abbreviates: curve of first compound, second compound 3.16 µM.
The mark [6] stands for this setting: curve of first compound, second compound 10 µM.
[7] abbreviates: second compound 0.0316 µM, first compound 0.0316 µM.
Setting [8] is: second compound 0.0316 µM, first compound 0.1 µM.
Where [9] appears, read: second compound 0.0316 µM, first compound 0.316 µM.
Setting [10] is: second compound 0.0316 µM, first compound 1 µM.
Setting [11] is: second compound 0.0316 µM, first compound 3.16 µM.
Where [12] appears, read: second compound 0.0316 µM, first compound 10 µM.
The mark [13] stands for this setting: second compound 0.1 µM, first compound 0.0316 µM.
Where [14] appears, read: second compound 0.1 µM, first compound 0.1 µM.
Where [15] appears, read: second compound 0.1 µM, first compound 0.316 µM.
Where [16] appears, read: second compound 0.1 µM, first compound 1 µM.
[17] abbreviates: second compound 0.1 µM, first compound 3.16 µM.
Setting [18] is: second compound 0.1 µM, first compound 10 µM.
[19] abbreviates: second compound 0.316 µM, first compound 0.0316 µM.
Setting [20] is: second compound 0.316 µM, first compound 0.1 µM.
Where [21] appears, read: second compound 0.316 µM, first compound 0.316 µM.
Setting [22] is: second compound 0.316 µM, first compound 1 µM.
[23] abbreviates: second compound 0.316 µM, first compound 3.16 µM.
The mark [24] stands for this setting: second compound 0.316 µM, first compound 10 µM.
The mark [25] stands for this setting: second compound 1 µM, first compound 0.0316 µM.
[26] abbreviates: second compound 1 µM, first compound 0.1 µM.
Setting [27] is: second compound 1 µM, first compound 0.316 µM.
Where [28] appears, read: second compound 1 µM, first compound 1 µM.
Setting [29] is: second compound 1 µM, first compound 3.16 µM.
[30] abbreviates: second compound 1 µM, first compound 10 µM.
[31] abbreviates: second compound 3.16 µM, first compound 0.0316 µM.
[32] abbreviates: second compound 3.16 µM, first compound 0.1 µM.
The mark [33] stands for this setting: second compound 3.16 µM, first compound 0.316 µM.
The mark [34] stands for this setting: second compound 3.16 µM, first compound 1 µM.
[35] abbreviates: second compound 3.16 µM, first compound 3.16 µM.
Setting [36] is: second compound 3.16 µM, first compound 10 µM.
The mark [37] stands for this setting: second compound 10 µM, first compound 0.0316 µM.
Where [38] appears, read: second compound 10 µM, first compound 0.1 µM.
Setting [39] is: second compound 10 µM, first compound 0.316 µM.
The mark [40] stands for this setting: second compound 10 µM, first compound 1 µM.
[41] abbreviates: second compound 10 µM, first compound 3.16 µM.
Setting [42] is: second compound 10 µM, first compound 10 µM.

Where “and” joins values, the source holds several entries; their conditions need not be identical. Identical values can stand only once.
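Also: spheroids exposed to compounds for 7 days before readout.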
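For viability, T/C in this document: 100% = DMSO vehicle control viability.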

With `C#Cc1c(F)ccc2cc(O)cc(-c3ncc4c(N5CC6CCC(C5)N6)nc(OCC56CCCN5CC(F)C6)nc4c3F)c12` (configuration not stated), the viability, T/C reads like this: (compound 0.0316 µM) 111% and 87.6% and 112%; (compound 0.1 µM) 107% and 91.8% and 88.9%; (compound 0.316 µM) 104% (2×) and 103%; (compound 1 µM) 108% and 105% and 109%; (compound 3.16 µM) 96.9% and 116% (2×); (compound 10 µM) 104% and 99.7% and 82.3%. Where the note is “curve of compound”, the IC50 was above 10 µM.

As to `CC1COCCN1c1cc(C2(O)CC3CCC(C2)O3)c2cnn(-c3ccn[nH]3)c2n1` (configuration not stated), the viability, T/C by setting is: (compound 0.0316 µM) 103% and 87.7% and 99%; (compound 0.1 µM) 95.7% and 94% and 86.5%; (compound 0.316 µM) 88.2% and 74.1% and 73.4%; (compound 1 µM) 56.8% and 58.5% and 54.9%; (compound 3.16 µM) 36.5% and 33.8% and 36.9%; (compound 10 µM) 30.4% and 26.9% and 29.3%. Also, the IC50 (curve of compound) is 1.5 µM and 1.41 µM and 1.35 µM.

With `CCc1cc2c(N3CCc4c(cc(Cn5ccnc5)cc4-c4cn(C)nc4C(F)(F)F)C3=O)cc(C)nc2c(OC)n1`, the viability, T/C is, setting by setting: (compound 0.0316 µM) 107% and 96% and 92.8%; (compound 0.1 µM) 101% and 98.5% and 96.4%; (compound 3.16 µM) 97.9% and 96.1% and 96.5%; (compound 10 µM) 93.5% and 82.6% and 105%. For the same molecule, the IC50 (curve of compound) is above 10 µM.

In the case of `CCc1cc2c(N3CCc4c(cc(Cn5ccnc5)cc4-c4cn(C)nc4C(F)(F)F)C3=O)ccnc2c(OC)n1`, the viability, T/C is 95% and 111% and 105% (compound 0.0316 µM); 98.7% and 90.5% and 101% (compound 0.1 µM); 94.4% and 103% and 99.7% (compound 0.316 µM); 101% and 91.2% and 96.7% (compound 1 µM); 91.8% and 97.7% and 83.7% (compound 3.16 µM); 98.8% and 88.6% and 94.2% (compound 10 µM). Besides, the IC50 (curve of compound) was above 10 µM.

For the molecule `COc1cc2cc(C(=O)CCC(=O)O)sc2cc1OC`, the viability, T/C (compound 0.0316 µM) was 104% and 107% and 91.3%; the viability, T/C (compound 0.1 µM) is 85% and 96.5% and 104%; the viability, T/C (compound 0.316 µM) was 117% and 104% and 114%; the viability, T/C (compound 10 µM) is 74.1% and 83.3% and 78.4%. The IC50 (curve of compound) was above 10 µM.

Turning to `O=C(Nc1ccc(O)c(NS(=O)(=O)c2ccc(F)cc2)c1)c1ccc(-c2ccccc2)cc1`, the viability, T/C is 101% (2×) and 109% (compound 0.0316 µM); 98.5% and 91.8% and 94.6% (compound 0.1 µM); 113% and 109% and 100% (compound 0.316 µM); 97.6% and 98.6% and 105% (compound 1 µM); 96.9% and 88.3% and 105% (compound 3.16 µM); 101% and 97.1% and 79.9% (compound 10 µM). For the same molecule, the IC50 (curve of compound) was above 10 µM.

As to `COc1cc(C2c3cc4c(cc3C(OC3OC5COC(C)OC5C(O)C3O)C3COC(=O)C23)OCO4)cc(OC)c1O` (configuration not stated) + COC1C(OC(N)=O)C(O)C(Oc2ccc3c(O)c(NC(=O)c4ccc(O)c(CC=C(C)C)c4)c(=O)oc3c2C)OC1(C)C, the IC50 under setting [1] is above 10 µM; the IC50 under setting [2] is above 10 µM; the IC50 under setting [3] was above 10 µM; the IC50 under setting [4] is above 10 µM; the IC50 under setting [5] is above 10 µM; the IC50 under setting [6] was above 10 µM. The viability, T/C came out at 120% under setting [7]; 105% under setting [8]; 98.9% under setting [9]; 94.9% under setting [10]; 98.2% under setting [11]; 76.1% under setting [12]. Also, the viability, T/C was found to be 118% under setting [13]; 108% under setting [14]; 118% under setting [15]; 92% under setting [16]; 95.9% under setting [17]; 83.3% under setting [18]. The viability, T/C stood at 95.7% under setting [19]; 104% under setting [20]; 96.1% under setting [21]; 90.3% under setting [22]; 84.8% under setting [23]; 73.1% under setting [24]. The viability, T/C runs as follows: under setting [25], 107%; under setting [26], 99.1%; under setting [27], 100%; under setting [28], 83.2%; under setting [29], 106%; under setting [30], 94%. Moreover, the viability, T/C reads like this: under setting [31], 96.2%; under setting [32], 113%; under setting [33], 109%; under setting [34], 115%; under setting [35], 97.6%; under setting [36], 72.3%. Also, the viability, T/C reads like this: under setting [37], 83.9%; under setting [38], 115%; under setting [39], 98.9%; under setting [40], 91.2%; under setting [41], 101%; under setting [42], 80.8%.

Consider `COc1cccc2c1C(=O)c1c(O)c3c(c(O)c1C2=O)CC(O)(C(=O)CO)CC3OC1CC(N)C(O)C(C)O1` (configuration not stated) + COC1C(OC(N)=O)C(O)C(Oc2ccc3c(O)c(NC(=O)c4ccc(O)c(CC=C(C)C)c4)c(=O)oc3c2C)OC1(C)C, for which the half-maximal inhibitory concentration (IC50) amounted to 1.54 µM under setting [1]; 1.21 µM under setting [2]; 1.18 µM under setting [3]; 1.13 µM under setting [4]; 1.6 µM under setting [5]; 1.03 µM under setting [6]. Also, the viability, T/C runs as follows: under setting [7], 116%; under setting [8], 101%; under setting [9], 93.3%; under setting [10], 55.7%; under setting [11], 38.1%; under setting [12], 31.1%. Also, the viability, T/C worked out at 104% under setting [13]; 115% under setting [14]; 92.5% under setting [15]; 51.9% under setting [16]; 45.1% under setting [17]; 34.9% under setting [18]. Moreover, the viability, T/C was found to be 107% under setting [19]; 116% under setting [20]; 76% under setting [21]; 55.4% under setting [22]; 43.1% under setting [23]; 33.1% under setting [24]. Besides, the viability, T/C was 101% under setting [25]; 120% under setting [26]; 93.1% under setting [27]; 51.5% under setting [28]; 39.6% under setting [29]; 27.4% under setting [30]. Besides, the viability, T/C under setting [31] was 109%; the viability, T/C under setting [32] came out at 109%; the viability, T/C under setting [33] came to 92.2%; the viability, T/C under setting [34] came to 56.6%; the viability, T/C under setting [35] was determined as 41.9%; the viability, T/C under setting [36] amounted to 31.8%. The viability, T/C came out at 88.1% under setting [37]; 106% under setting [38]; 102% under setting [39]; 50.1% under setting [40]; 56.2% under setting [41]; 33.9% under setting [42].
